Test results from BindingDB's records for doi:10.1021/jm050792d (University of Naples Federico II, 2005).

What was measured:
[1] = biological target: T1, Adenosine receptor A1 (Homo sapiens, UniProt P30542); assay: Displacement of [3H]DPCPX from human adenosine A1 receptor expressed in CHO cells
T1 sequence (P30542 whole entry): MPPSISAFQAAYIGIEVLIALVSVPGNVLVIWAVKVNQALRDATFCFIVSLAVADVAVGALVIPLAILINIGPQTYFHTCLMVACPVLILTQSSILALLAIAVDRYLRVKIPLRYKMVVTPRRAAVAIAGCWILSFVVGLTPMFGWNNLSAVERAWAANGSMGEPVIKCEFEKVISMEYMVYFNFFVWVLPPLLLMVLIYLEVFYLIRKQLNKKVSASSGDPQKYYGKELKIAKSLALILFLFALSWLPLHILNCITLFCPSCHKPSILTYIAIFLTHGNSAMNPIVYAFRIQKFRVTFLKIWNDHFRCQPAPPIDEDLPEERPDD

[2] = biological target: Adenosine receptor A2a (Homo sapiens, UniProt P29274); assay: Displacement of [3H]NECA from human adenosine A2A receptor expressed in CHO cells
Chain of Adenosine receptor A2a (P29274 whole entry): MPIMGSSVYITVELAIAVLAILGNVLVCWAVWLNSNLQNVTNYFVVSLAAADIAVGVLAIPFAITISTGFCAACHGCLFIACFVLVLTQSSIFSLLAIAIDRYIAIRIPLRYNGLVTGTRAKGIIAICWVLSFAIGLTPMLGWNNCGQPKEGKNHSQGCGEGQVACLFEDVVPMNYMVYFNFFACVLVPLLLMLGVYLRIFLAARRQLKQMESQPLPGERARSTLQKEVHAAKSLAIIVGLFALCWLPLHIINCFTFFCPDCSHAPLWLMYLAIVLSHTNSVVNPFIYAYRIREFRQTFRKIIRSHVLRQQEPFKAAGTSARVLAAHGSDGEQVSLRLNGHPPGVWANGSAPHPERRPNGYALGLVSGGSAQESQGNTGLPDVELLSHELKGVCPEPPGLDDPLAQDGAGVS

Compound	Ki [1] [µM]	Ki [2] [µM]
O=c1c2[nH]nnc2nc2n1CCCS2 [7,8-Dihydro-3H,6H-5-thia-1,2,3,4,8a-pentaaza-cyclopenta[b]naphthalen-9-one]	> 10	> 10
CC1CSc2nc3nn[nH]c3c(=O)n21 (centres undefined) [7-methyl-6,7-dihydro[1,3]thiazolo[3,2-a][1,2,3]triazolo[4,5-d]pyrimidin-9(3H)-one]	> 10	> 10
